# Measurements: patent US20240139213A1 (priority 2017, published 2024)
# System: Subjects with a variety of atopic conditions
# Format: in vivo, human
# Set-up: key: a score of 1 was given if symptoms worsened; a score of 2 was given if there was no change in symptoms; a score of 3 was given if there was some improvement in symptoms; a score of 4 was given if there were marked improvement in symptoms
# Details: Subject D; eosinophilic esophagitis and GERD; Vitamin D3 4000 IU for 9 months without a probiotic compound
smiles,measurement,value
C=C1CC[C@H](O)C/C1=C/C=C1\CCC[C@]2(C)[C@@H]([C@H](C)CCCC(C)C)CC[C@@H]12 [Vitamin D3],score on 4 point scale,2
